Consider 20 molecules from US9650339B2, “Inhibitors of histone demethylases” (Gilead Sciences, Inc., priority 2013, dated 2017).

pIC50: −log10 of the molar value. Where only a bound is given, the exact number is not on record here.

Broadly, the pIC50 is the IC50 on a negative log10 scale, so that one unit is a factor of ten.

One assay deals with KDM6A (UTX) (Homo sapiens, UniProt O15550). As to the kind of experiment: Histone lysine demethylase AlphaLISA assay, KDM6A. The format is biochemical. As to conditions: read-out: KDM6A HDME Inhibition IC50. The method in brief: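 AlphaLISA demethylation readout: enzyme preincubated 10 min, then 10 min with compounds in 3% DMSO buffer, before biotinylated methyl-lysine histone peptide substrate with 25 μM L-Asc and 10 μM α-KG, room temperature. Acceptor beads then streptavidin donor beads added, dark incubation, plates read.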
Sequence of KDM6A (UTX) (O15550 919-1401): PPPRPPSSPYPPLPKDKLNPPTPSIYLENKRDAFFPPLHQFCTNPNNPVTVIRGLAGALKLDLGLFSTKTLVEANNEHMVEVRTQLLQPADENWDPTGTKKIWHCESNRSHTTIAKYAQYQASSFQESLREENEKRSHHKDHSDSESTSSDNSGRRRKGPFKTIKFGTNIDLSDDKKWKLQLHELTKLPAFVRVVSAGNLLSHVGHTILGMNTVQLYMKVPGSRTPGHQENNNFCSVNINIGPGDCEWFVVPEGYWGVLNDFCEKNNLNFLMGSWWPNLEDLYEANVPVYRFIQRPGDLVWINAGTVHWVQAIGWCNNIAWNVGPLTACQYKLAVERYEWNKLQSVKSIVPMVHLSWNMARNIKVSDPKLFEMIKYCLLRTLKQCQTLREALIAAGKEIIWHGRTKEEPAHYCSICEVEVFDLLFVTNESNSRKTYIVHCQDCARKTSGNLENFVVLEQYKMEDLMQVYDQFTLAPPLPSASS
Background: Alpha assays give light when donor and acceptor beads are brought close together.

For the next assay, the target named is T1, KDM4B (JMJD2B) (Homo sapiens, UniProt O94953).
T1 construct: 2-500; purchased BPS; host or cells: Bac (baculovirus system)
T1 sequence (O94953 2-500): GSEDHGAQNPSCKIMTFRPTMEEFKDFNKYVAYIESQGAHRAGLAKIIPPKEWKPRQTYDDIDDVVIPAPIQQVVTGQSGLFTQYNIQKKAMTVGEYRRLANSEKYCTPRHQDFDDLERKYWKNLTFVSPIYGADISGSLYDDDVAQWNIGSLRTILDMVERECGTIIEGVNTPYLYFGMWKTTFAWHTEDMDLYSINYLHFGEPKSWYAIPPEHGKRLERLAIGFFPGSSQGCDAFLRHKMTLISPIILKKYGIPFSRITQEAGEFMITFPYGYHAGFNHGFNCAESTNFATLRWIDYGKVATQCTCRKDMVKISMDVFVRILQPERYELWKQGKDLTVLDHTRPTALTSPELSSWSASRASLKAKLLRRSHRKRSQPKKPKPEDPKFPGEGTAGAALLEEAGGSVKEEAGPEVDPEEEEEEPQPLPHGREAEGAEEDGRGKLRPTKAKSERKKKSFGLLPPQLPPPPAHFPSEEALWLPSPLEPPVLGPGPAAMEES
Put plainly: Histone lysine demethylase AlphaLISA assay, KDM4B. The format is biochemical. As to conditions: read-out: KDM4B HDME Inhibition IC50. How it is done:
Assays are performed analogously to the protocol described by PerkinElmer (Roy et al. PerkinElmer Technical Note: AlphaLISA #12, April 2011)
Enzymes are dissolved in enzyme buffer and incubated for 10 min before being added to 3% DMSO solutions of compounds in enzyme buffer. Incubated for another 10 minutes, before substrate solution is added and the reaction mixture is incubated at room temperature. 10 μL acceptor beads, suspended in Epigenetic Buffer (Perkin Elmer AL008) from stock, are added and the suspension is incubated in the dark at room temperature, before a suspension of streptavidin donor beads (Perkin Elmer 6760002) in Epigenetic Buffer is added. After incubation at room temperature in the dark the plates are read.
BK9M3: Biotin-ARTKQTAR(KMe3)STGGKAPRKQ-NH2 (Caslo, Denmark) […]
Substrate Solution: Substrate, 25 μM L-Asc, and 10 μM α-KG in Buffer A.

A further assay deals with T2, KDM4C (Homo sapiens, UniProt Q9H3R0).
T2 construct: Full length; host or cells: U2OS
T2 sequence (Q9H3R0 1-1056): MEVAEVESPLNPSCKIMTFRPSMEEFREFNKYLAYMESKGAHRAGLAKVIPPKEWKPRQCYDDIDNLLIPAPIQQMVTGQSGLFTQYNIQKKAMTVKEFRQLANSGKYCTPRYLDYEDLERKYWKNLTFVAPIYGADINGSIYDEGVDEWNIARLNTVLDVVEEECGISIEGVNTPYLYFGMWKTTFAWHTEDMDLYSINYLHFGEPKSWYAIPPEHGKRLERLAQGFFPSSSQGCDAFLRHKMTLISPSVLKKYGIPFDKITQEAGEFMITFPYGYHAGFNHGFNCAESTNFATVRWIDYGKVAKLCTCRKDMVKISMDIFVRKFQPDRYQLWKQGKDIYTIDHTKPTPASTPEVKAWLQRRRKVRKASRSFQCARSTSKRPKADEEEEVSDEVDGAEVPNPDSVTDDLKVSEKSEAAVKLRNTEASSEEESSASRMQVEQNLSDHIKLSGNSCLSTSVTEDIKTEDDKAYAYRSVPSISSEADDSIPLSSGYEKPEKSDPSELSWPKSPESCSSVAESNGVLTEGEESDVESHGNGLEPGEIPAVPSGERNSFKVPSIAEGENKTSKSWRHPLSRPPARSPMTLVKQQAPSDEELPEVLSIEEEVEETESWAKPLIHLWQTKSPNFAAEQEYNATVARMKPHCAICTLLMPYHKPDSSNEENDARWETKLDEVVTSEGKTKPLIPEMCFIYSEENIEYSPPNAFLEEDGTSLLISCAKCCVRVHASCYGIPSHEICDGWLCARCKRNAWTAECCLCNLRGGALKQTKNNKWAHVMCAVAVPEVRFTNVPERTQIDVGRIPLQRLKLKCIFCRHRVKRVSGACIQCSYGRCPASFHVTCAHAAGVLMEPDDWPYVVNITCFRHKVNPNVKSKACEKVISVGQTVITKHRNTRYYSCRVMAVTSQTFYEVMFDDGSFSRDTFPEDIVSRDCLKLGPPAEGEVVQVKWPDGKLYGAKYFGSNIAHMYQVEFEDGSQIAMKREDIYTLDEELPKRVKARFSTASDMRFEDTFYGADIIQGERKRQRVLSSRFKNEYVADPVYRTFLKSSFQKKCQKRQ
As to the kind of experiment: Histone lysine demethylase immunofluorescence assay, U2OS cells transfected with KDM4C. The format is cell-based. As to conditions: U2OS cells transfected with pCMVHA KDM4C; mark detected H3K9me3; 20 hours. The method in brief: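 U2OS cells were transiently transfected with HA-tagged demethylase and reseeded after 6 h into compound-containing DMEM/10% FBS for 20 h. Cells were fixed in formaldehyde and immunostained for HA and the relevant histone methyl mark, then imaged. IC50 is based on mean mark staining in HA+ transfected cells.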

Turning to `CC(C#N)NCc1ccnc(CNCCCN(C)C)c1` (stereo not drawn) [Compound 22, 2-({[2-({[3-(dimethylamino)propyl]-amino}methyl)pyridin-4-yl]methyl}amino)-propanenitrile], the pIC50 at KDM6A (UTX) is under 5.60; at KDM4B (JMJD2B) it was 5.60 to 6.60; on KDM4C it was under 5.60.

`N#CCNCc1ccnc(CNCCCCN(Cc2ccccc2)C2CC2)c1` [Compound 23, 2-[({2-[({4-[benzyl(cyclopropyl)-amino]butyl}amino)-methyl]pyridin-4-yl}methyl)amino]-acetonitrile]: the pIC50 on KDM6A (UTX), on KDM4B (JMJD2B) and against KDM4C was under 5.60 in each case.

For the molecule `CNC(C#N)c1ccnc(CNCCCN(C)C)c1` (stereo not drawn) [Compound 24, 2-[2-({[3-(dimethylamino)propyl]-amino}methyl)pyridin-4-yl]-2-(methylamino)-acetonitrile], the negative logarithm of the IC50 (pIC50) on KDM6A (UTX) is under 5.60; on KDM4B (JMJD2B), over 6.60; against KDM4C, under 5.60.

On to `CN(C)C(=O)CNCc1cc(/C=N\C2CC2)ccn1` [Compound 33], for which the pIC50 on KDM6A (UTX) was under 5.60; at KDM4B (JMJD2B), under 5.60; at KDM4C, 5.60 to 6.60.

For the molecule `CN(C)C(=O)CNCc1cc(/C=N/CCCc2ccccc2)ccn1` [Compound 34, N,N-dimethyl-2-[({4-[[(3-phenylpropyl)imino]-methyl]pyridin-2-yl}methyl)amino]-acetamide], the pIC50 on KDM6A (UTX), on KDM4B (JMJD2B) and against KDM4C was under 5.60 each time.

Turning to `CC1CC1/N=C/c1ccnc(CNCC(=O)N(C)C)c1` (stereo not drawn) [Compound 35, N,N-dimethyl-2-[({4-[N-(2-methylcyclopropyl)-carboximidoyl]pyridin-2-yl}methyl)amino]-acetamide], the pIC50 on KDM6A (UTX) was under 5.60; on KDM4B (JMJD2B) it was over 6.60; on KDM4C it was 5.60 to 6.60.

For `CN(C)C(=O)CNCc1cc(/C=N/CCC2CCCCC2)ccn1` [Compound 36, 2-[({4-[[(2-cyclohexylethyl)imino]-methyl]pyridin-2-yl}methyl)amino]-N,N-dimethylacetamide], the figures for the pIC50 at KDM6A (UTX), on KDM4B (JMJD2B) and at KDM4C were under 5.60, over 6.60 and under 5.60, respectively.

Take `CN(C)CCCNCc1cc(/C=N/CCN(C)C)ccn1` [Compound 38, ({4-[{[2-(dimethylamino)ethyl]-imino}methyl]pyridin-2-yl}methyl)[3-(dimethylamino)-propyl]amine]: the pIC50 at KDM6A (UTX), on KDM4B (JMJD2B) and at KDM4C was under 5.60 throughout.

As to `CCSCCNCc1cc(/C=N/C2CC2)ccn1` [Compound 39, N-{[2-({[2-(ethylsulfanyl)-ethyl]amino}methyl)pyridin-4-yl]methylidene}-cyclopropanamine], the pIC50 on KDM6A (UTX) is under 5.60; on KDM4B (JMJD2B), over 6.60; against KDM4C, under 5.60.

`CN1CCCC1CCNCc1cc(/C=N/C2CC2)ccn1` (stereo not drawn) [Compound 40, N-{[2-({[2-(l-methylpyrrolidin-2-yl)ethyl]amino}methyl)-pyridin-4-yl]methylidene}-cyclopropanamine]: the figures for the pIC50 on KDM6A (UTX), on KDM4B (JMJD2B) and on KDM4C were under 5.60, 5.60 to 6.60 and 5.60 to 6.60, respectively.

In the case of `CN(CCCNCc1cc(/C=N/C2CC2)ccn1)Cc1ccccc1` [Compound 41, N-({2-[({3-[benzyl(methyl)amino]-propyl}amino)methyl]-pyridin-4-yl}methylidene)-cyclopropanamine], the pIC50 on KDM6A (UTX) was under 5.60; on KDM4B (JMJD2B) it was over 6.60; on KDM4C, 5.60 to 6.60.

As to `C(=N/C1CC1)/c1ccnc(CNCCCN2CCCC2)c1` [Compound 42, N-{[2-({[3-(pyrrolidin-1-yl)propyl]amino}-methyl)pyridin-4-yl]methylidene}-cyclopropanamine], the pIC50 was under 5.60 on KDM6A (UTX), 5.60 to 6.60 at KDM4B (JMJD2B) and 5.60 to 6.60 at KDM4C.

On to `CN(C)C/C=C/CNCc1cc(/C=N/C2CC2)ccn1` [Compound 43, N-{[2-({[(2E)-4-(dimethylamino)but-2-en-1-yl]amino}-methyl)pyridin-4-yl]methylidene}-cyclopropanamine], for which the pIC50 on KDM6A (UTX) was under 5.60; on KDM4B (JMJD2B), over 6.60; against KDM4C, 5.60 to 6.60.

As for `CN(C)CCCCNCc1cc(/C=N\C2CC2)ccn1` [Compound 45, N-{[2-({[4-(dimethylamino)butyl]-amino}methyl)-pyridin-4-yl]methylidene}-cyclopropanamine], the pIC50 is under 5.60 at KDM6A (UTX), 5.60 to 6.60 at KDM4B (JMJD2B) and 5.60 to 6.60 at KDM4C.

For the molecule `CN(C)CC1CCC(CNCc2cc(/C=N/C3CC3)ccn2)CC1` (stereo not drawn) [Compound 46, N-[(2-{[({4-[(dimethylamino)-methyl]cyclohexyl}-methyl)amino]-methyl}pyridin-4-yl)methylidene]-cyclopropanamine], the pIC50 is under 5.60 on KDM6A (UTX), 5.60 to 6.60 on KDM4B (JMJD2B) and 5.60 to 6.60 against KDM4C.

For `CN(C)CCCCCNCc1cc(/C=N/C2CC2)ccn1` [Compound 47, N-{[2-({[5-(dimethylamino)-pentyl]amino}-methyl)pyridin-4-yl]methylidene}-cyclopropanamine], the negative logarithm of the IC50 (pIC50) is under 5.60 on KDM6A (UTX), 5.60 to 6.60 on KDM4B (JMJD2B) and 5.60 to 6.60 at KDM4C.

Take `CCN(CC)CCCCNC(=O)CNCc1cc(/C=N/C2CC2)ccn1` [Compound 48, 2-[({4-[N-cyclopropyl-carboximidoyl]pyridin-2-yl}methyl)amino]-N-[4-(diethylamino)-butyl]acetamide]: the pIC50 at KDM6A (UTX) was under 5.60; on KDM4B (JMJD2B), over 6.60; at KDM4C, under 5.60.

As for `O=C(CNCc1cc(/C=N/C2CC2)ccn1)N1CCC[C@@H]1CN1CCCC1` [Compound 49, 2-[({4-[N-cyclopropyl-carboximidoyl]pyridin-2-yl}methyl)amino]-1-[(2R)-2-(pyrrolidin-1-ylmethyl)pyrrolidin-1-yl]ethan-1-one], the pIC50 on KDM6A (UTX) is under 5.60; at KDM4B (JMJD2B), over 6.60; against KDM4C, 5.60 to 6.60.

In the case of `CCN(CCC#N)C(=O)CNCc1cc(/C=N/C2CC2)ccn1` [Compound 50, N-(2-cyanoethyl)-2-[({4-[N-cyclopropyl-carboximidoyl]-pyridin-2-yl}methyl)amino]-N-ethylacetamide], the pIC50 was under 5.60 at KDM6A (UTX), over 6.60 at KDM4B (JMJD2B) and under 5.60 at KDM4C.

Take `CCN1CCCC1CNC(=O)CNCc1cc(/C=N/C2CC2)ccn1` (stereo not drawn) [Compound 51, 2-[({4-[N-cyclopropyl-carboximidoyl]-pyridin-2-yl}methyl)-amino]-N-[(1-ethylpyrrolidin-2-yl)methyl]acetamide]: the pIC50 on KDM6A (UTX) was under 5.60; on KDM4B (JMJD2B) it was over 6.60; against KDM4C, under 5.60.
